Experimental findings from patent US6309679A, “Method of improving processes using pectinase enzymes with noble gases” (American Air Liquide, priority 1995, dated 2001) are described below.

The test system of one test is Pectinase (EC 3.2.1.15). The test can be described thus: Pectinase/Pectin reaction gas run (spectrophotometric, 400 nm). The format is biochemical, Aspergillus niger. To be noted: maximum effect, percent change compared to air. The protocol: PECTINASE (EC 3.2.1.15) (P-9932)/PECTIN (P-9135) GAS RUN PROTOCOL
PURPOSE: Effect of Air, Ne, Ar, Kr, Xe, N2 and O2 on Pectinase/Pectin reaction at 10° C., 25° C. and 35° C. (one substrate concentration).
ENZYME: Pectinase (Sigma No. P-9932) from Aspergillus niger Solution in 25-45% glycerol (actual glycerol content on label)
Unit Definition: one unit will liberate 1.0 μmole of galacturonic acid from polygalacturonic acid per min at pH 4.0 at 25° C.
SUBSTRATE: Pectin (Sigma No. P-9135) from Citrus fruits
Soln A: 0.1 M Citric acid--sodium citrate, pH 4.0 at 25° C. Dissolve 7.6 g citric acid and 12.05 g sodium citrate in 1 liter of DI H2 O. Adjust pH to 4.0. pH25° C. =4.013
Soln B: 1% Pectin in DI H2 O Boil 100 ml DI H2 O. Add 1 g pectin, stir by hand. Cover, boil for 2 minutes, stir by hand, boil for an additional 1 minute. Remove from heat and let cool for 10 minutes.
Soln C: Pectinase (50 U/ml) in Soln A Dilute 43.5 ml Pectinase to 50 ml with Soln A. Store in an amber bottle and refrigerate.
R=2.0 ml Soln B+0.5 ml Soln A
Fill the cuvettes with 2.0 ml of Soln B with a 1 cc syringe.
Fill 8 serum vials with 5.0 ml of Soln C Stopper and crimp to effect a gas tight system.
(§1) Bubble 4×30 cc of the appropriate gas in T1G1 . . . 5 cuvettes. Refrigerate under 2×10 cc of the appropriate gas. Keep refrigerated at least 15 minutes before running.
Remove G1 . . . 5 serum vials from fridge. Sample Soln C with 1 cc syringes previously filled with the appropriate gas. Slide the syringes/needle through the silicone but not into the liquid layer, simultaneously push plungers into the liquid and push the plungers simultaneously, THEN IT WILL BE NECESSARY TO PULL AND PUSH PLUNGER FOUR TIMES TO EFFECT MIXING OF THE SUBSTRATE AND ENZYME IN THE CUVETTES, run timedrives.
(§2) Bubble 4×30 cc of the appropriate gas in T2G1 . . . 5 cuvettes. Refrigerate under 2×10 cc of the appropriate gas. Keep refrigerated at least 15 minutes before running.
(§3) Bubble 4×30 cc of the appropriate gas in T3G1 . . . 5 cuvettes. Refrigerate under 2×10 cc of the appropriate gas. Keep refrigerated at least 15 minutes before running.

The test system of test [1] is Pectinesterase (EC 3.1.1.11). Put plainly: Pectinesterase/p-Nitrophenyl acetate reaction gas run (spectrophotometric, 400 nm). Particulars: maximum effect, percent change compared to air. The format is biochemical, Orange Peel. On the procedure:
PECTINESTERASE (P-5400)/p-NITROPHENYL ACETATE (N-8130) GAS RUN PROTOCOL
PURPOSE: Effect of Air, Ne, Ar, Kr, Xe, N2 and 02 on Pectinesterase/p-Nitrophenyl acetate reaction at 10° C., 25° C. and 35° C. (one substrate concentration).
ENZYME: Pectinesterase P-5400
Unit definition: one unit will release 1 μequivalent of acid from pectin per min at pH 7.5 at 30° C.
SUBSTRATE: p-Nitrophenyl acetate N-8130
Soln A: 0.1 M Citric acid--Na2 HPO4 buffer, pH 7.5 25° C.
Soln B: 50 mM Methanolic p-Nitrophenyl acetate (N-8130)
Soln C: p-Nitrophenyl acetate in Soln A
Soln D: Pectinesterase (100 Units/ml) in Soln A
R=2.0 ml Soln C+0.5 ml Soln A
Fill the cuvettes with 2.0 ml of Soln C with a 1 cc syringe.
Fill 8 serum vials with 5.0 ml of Soln D. Stopper and crimp to effect a gas tight system.
as §1
Remove G1 . . . 5 serum vials from fridge. Sample Soln D with 1 cc syringes previously filled with the appropriate gas. Slide the syringes/needle through the silicone but not into the liquid layer, simultaneously push plungers into the liquid and push the plungers simultaneously, run timedrives.
as §2, §3

Each structure is given as a SMILES string.

Take `[Ar]` [Ar, argon]: the “Pectinase % Rate Difference” value in the test with Pectinase (EC 3.2.1.15) (25° C.) was determined as 6.4%; in the test with Pectinase (EC 3.2.1.15) (35° C.), 18.3%. The “Pectinase % Yield Difference” value with Pectinase (EC 3.2.1.15) (35° C.) stood at 8.0%. For the same compound, the results for the “Pectinesterase % Rate Difference” value in test [1] (10° C.), in test [1] (25° C.) and in test [1] (35° C.) were 5.0%, 17.7% and 0.8%, respectively. Besides, the figures for the “Pectinesterase % Yield Difference” value in test [1] (25° C.) and in test [1] (35° C.) were 2.1% and 0.70%, respectively.

As for `[Kr]` [Kr, krypton], the “Pectinase % Rate Difference” value was 2.1% in the test on Pectinase (EC 3.2.1.15) (25° C.) and 6.7% with Pectinase (EC 3.2.1.15) (35° C.). In addition, the “Pectinase % Yield Difference” value in the test on Pectinase (EC 3.2.1.15) (35° C.) was determined as 1.4%. Further, the results for the “Pectinesterase % Rate Difference” value in test [1] (10° C.), in test [1] (25° C.) and in test [1] (35° C.) were 32.3%, 29.4% and 0.8%, respectively. Further, the “Pectinesterase % Yield Difference” value in test [1] (25° C.) was determined as 8.3%; in test [1] (35° C.) it was 2.1%.

With `[Ne]` [Ne, neon], the “Pectinase % Rate Difference” value with Pectinase (EC 3.2.1.15) (25° C.) was 4.3%; in the test on Pectinase (EC 3.2.1.15) (35° C.), 3.3%. The “Pectinase % Yield Difference” value in the test on Pectinase (EC 3.2.1.15) (35° C.) stood at 3.3%. In addition, the entries for the “Pectinesterase % Rate Difference” value in test [1] (10° C.), in test [1] (25° C.) and in test [1] (35° C.) were 19.4%, 0.0% and 1.6%, respectively. Further, the results for the “Pectinesterase % Yield Difference” value in test [1] (25° C.) and in test [1] (35° C.) were 0.37% and 1.4%, respectively.

Consider `[Xe]` [Xe, xenon], for which the “Pectinase % Rate Difference” value in the test on Pectinase (EC 3.2.1.15) (25° C.) stood at 0.0%; in the test with Pectinase (EC 3.2.1.15) (35° C.), 15.0%. The “Pectinase % Yield Difference” value with Pectinase (EC 3.2.1.15) (35° C.) is 7.0%. For the same compound, the “Pectinesterase % Rate Difference” value in test [1] (10° C.) came to 29.0%; in test [1] (25° C.) it was 2.0%; in test [1] (35° C.) it was 3.3%. Also, the “Pectinesterase % Yield Difference” value is 0.70% in test [1] (25° C.) and 0.0% in test [1] (35° C.).
